Read-outs that look alike come from different tables or passages of the source.
What was measured:
[1] = molecular target: T1, menin/MLL (terbium chelate-labeled menin, FITC-MBM1 peptide) (Homo sapiens, UniProt O00255, T541A); assay: Menin/MLL homogenous time-resolved fluorescence (HTRF) assay; type: binding; conditions: 30 min incubation
T1 construct: Menin (a.a 1-610-6xhis tag)
T1 sequence (O00255 with tags, fused parts or gaps T541A): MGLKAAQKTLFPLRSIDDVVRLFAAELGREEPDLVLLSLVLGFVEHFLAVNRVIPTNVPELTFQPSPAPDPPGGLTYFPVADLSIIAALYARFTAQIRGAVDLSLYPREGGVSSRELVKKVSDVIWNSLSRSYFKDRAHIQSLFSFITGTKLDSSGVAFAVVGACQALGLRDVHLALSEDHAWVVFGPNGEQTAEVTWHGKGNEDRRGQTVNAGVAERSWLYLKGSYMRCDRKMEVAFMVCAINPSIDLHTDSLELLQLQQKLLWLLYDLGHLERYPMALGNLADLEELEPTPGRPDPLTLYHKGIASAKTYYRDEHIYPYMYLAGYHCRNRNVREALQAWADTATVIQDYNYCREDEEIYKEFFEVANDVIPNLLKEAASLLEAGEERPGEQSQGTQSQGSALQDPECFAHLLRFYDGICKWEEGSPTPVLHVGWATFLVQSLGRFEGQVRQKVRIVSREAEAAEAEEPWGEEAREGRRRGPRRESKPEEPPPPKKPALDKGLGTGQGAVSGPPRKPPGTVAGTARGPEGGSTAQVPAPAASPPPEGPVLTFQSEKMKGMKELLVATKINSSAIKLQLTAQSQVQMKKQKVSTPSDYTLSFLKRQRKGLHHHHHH
Procedure, shortened: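 Compounds were preincubated 30 min at ambient temperature with 200 pM terbium-labeled menin (aa 1-610, His-tagged) in Tris pH 7.5 buffer with DTT and Pluronic, then 75 nM FITC-MBM1 peptide added for 15 min. HTRF ratio 520/490 nm gave % inhibition; IC50 from four-parameter fit, floor 0.1 nM.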

[2] = system: MOLM14 cells; assay: Proliferation assay, spheroid-like growth, MOLM14 (MLL-AF9 rearranged); type: cell-based, human; conditions: 8 days, confluence as measure of spheroid size, read-out: spheroid assay_OneTime MOLM14 IC50
Procedure, shortened: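 IC50 derived from a variable-slope dose-response fit of percent confluence change, with DMSO-treated cells as high control and high-dose reference compound as low control. Spheroid-like growth of MOLM14 (200 cells/well) or KO-52 (300 cells/well) in ultra-low attachment plates, 8 days, 37° C, 5% CO2, DMSO normalised to 0.3%, imaged at day 8.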

Row | Compound | IC50 [1] | IC50 ([2]; Homo sapiens, MOLM-14, 192 h) | IC50 [2]
1 | CNC(=O)c1ccnc(N[C@H]2C[C@@H]([C@@H](C(C)C)N3CC4(CCN(c5ncnnc5Oc5ccc(F)cc5-c5cncnc5C5CC5)C4)C3)C2)n1 (single isomer, unassigned) [Compound 452] | 0.11 nM | 20 nM | –
2 | CNC(=O)c1csc(N[C@H]2C[C@@H]([C@@H](C(C)C)N3CC4(CCN(c5ncnnc5Oc5ccc(F)cc5-c5cncnc5C5CC5)C4)C3)C2)n1 (single isomer, unassigned) [Compound 453] | 0.05 nM | 6 nM | –
3 | CC(=O)Nc1nnc(N[C@H]2C[C@@H]([C@@H](C(C)C)N3CC4(CCN(c5ncnnc5Oc5ccc(F)cc5-c5cncnc5C5CC5)C4)C3)C2)s1 (single isomer, unassigned) [Compound 454] | 0.17 nM | 13 nM | –
4 | CNC(=O)c1cnc(N[C@H]2C[C@@H]([C@H](C)N3CC4(CCN(c5ncnnc5Oc5ccc(F)cc5-c5cncnc5C5CC5)C4)C3)C2)s1 (single isomer, unassigned) [Compound 455] | 0.14 nM | 24 nM | –
5 | CC(C)C([C@H]1C[C@@H](Nc2n[nH]c3ncncc23)C1)N1CC2(CCN(c3ncnnc3Oc3ccc(F)cc3-c3cncnc3C3CC3)C2)C1 (single isomer, unassigned) [Compound 458] | 0.16 nM | 27 nM | –
6 | CNC(=O)c1oc(N[C@H]2C[C@@H](C(C(C)C)N3CC4(CCN(c5ncnnc5Oc5ccc(F)cc5-c5cncnc5C5CC5)C4)C3)C2)nc1C (single isomer, unassigned) [Compound 460] | 0.07 nM | 11 nM | –
7 | CNC(=O)c1coc(N[C@H]2C[C@@H](C(C)N3CC4(CCN(c5ncnnc5Oc5ccc(F)cc5-c5cncnc5C5CC5)C4)C3)C2)n1 (single isomer, unassigned) [Compound 461] | 0.2 nM | 63 nM | –
8 | CC(C)[C@H]([C@H]1C[C@@H](Nc2ccc3[nH]c(=O)[nH]c3c2)C1)N1CC2(CCN(c3ncnnc3Oc3ccc(F)cc3-c3cncnc3C3CC3)C2)C1 (single isomer, unassigned) [Compound 462] | 0.27 nM | 89 nM | –
9 | CC(C)[C@H]([C@H]1C[C@@H](Nc2ccnc(N)n2)C1)N1CC2(CCN(c3ncnnc3Oc3ccc(F)cc3-c3cncnc3C3CC3)C2)C1 (single isomer, unassigned) [Compound 463] | 0.082 nM | 29 nM | –
10 | CCOC(=O)c1coc(N[C@H]2C[C@@H]([C@@H](C(C)C)N3CC4(CCN(c5ncnnc5Oc5ccc(F)cc5-c5cncnc5C5CC5)C4)C3)C2)n1 (single isomer, unassigned) [Compound 480] | 0.15 nM | 6 nM | –
11 | CCOC(=O)c1nnc(N[C@H]2C[C@@H](C(C(C)C)N3CC4(CCN(c5ncnnc5Oc5ccc(F)cc5-c5cncnc5C5CC5)C4)C3)C2)o1 (single isomer, unassigned) [Compound 481] | 0.14 nM | > 940 nM | –
12 | CCOC(=O)c1nnc(N[C@H]2C[C@@H](C(C(C)C)N3CC4(CCN(c5ncnnc5Oc5ccc(F)cc5-c5cncnc5C5CC5)C4)C3)C2)s1 (single isomer, unassigned) [Compound 482] | 0.18 nM | 15 nM | –
13 | CCOC(=O)c1sc(N[C@H]2C[C@@H](C(C(C)C)N3CC4(CCN(c5ncnnc5Oc5ccc(F)cc5-c5cncnc5C5CC5)C4)C3)C2)nc1C (single isomer, unassigned) [Compound 483] | 0.07 nM | 17 nM | –
14 | CC(C)C([C@H]1C[C@@H](Nc2nnc(N)s2)C1)N1CC2(CCN(c3ncnnc3Oc3ccc(F)cc3-c3cncnc3C3CC3)C2)C1 (single isomer, unassigned) [Compound 488] | 0.15 nM | 4 nM | –
15 | CC(C)C([C@H]1C[C@@H](NC(=O)OC(C)(C)C)C1)N1CC2(CCN(c3ncnnc3Oc3ccc(F)cc3-c3cncnc3C3CC3)C2)C1 (single isomer, unassigned) [Compound 491a] | 0.13 nM | 4.9 nM | –
16 | CC(C)C([C@H]1C[C@@H](N2CC3(COC3)C2)C1)N1CC2(CCN(c3ncnnc3Oc3ccc(F)cc3-c3ncc(C#N)cc3C3CC3)C2)C1 (some centres unmarked) [Compound 140] | 0.5 nM | 42 nM | –
17 | CC(=O)N[C@H]1C[C@@H](C(C(C)C)N2CC3(CCN(c4ncnnc4Oc4ccc(F)cc4-c4nnccc4C4CC4)C3)C2)C1 (some centres unmarked) [Compound 183] | 0.4 nM | 160 nM | –
18 | CC(C)C([C@H]1C[C@@H](Nc2ncccn2)C1)N1CC2(CCN(c3ncnnc3Oc3ccc(F)cc3-c3cncnc3C3CC3)C2)C1 (some centres unmarked) [Compound 192] | 4.8 nM | 1040 nM | –
19 | Cc1ncc(-c2cc(F)ccc2Oc2nncnc2N2CCC3(C2)CN([C@@H](C(C)C)[C@H]2C[C@@H](N4CCC5(CN(C(=O)C6CC6)C5)C4)C2)C3)c(C2CC2)n1 [Compound 380] | 0.16 nM | 3.7 nM | –
20 | Cc1ncc(-c2cc(F)ccc2Oc2nncnc2N2CCC3(C2)CN([C@@H](C(C)C)[C@H]2C[C@@H](N4CCC5(COC5)C4)C2)C3)c(C2CC2)n1 [Compound 382] | 0.08 nM | 7 nM | –
21 | Cc1ncc(-c2cc(F)ccc2Oc2nncnc2N2CCC3(C2)CN([C@@H](C(C)C)[C@H]2C[C@@H](N4CC5(CN(C(=O)C6(F)CC6)C5)C4)C2)C3)c(C2CC2)n1 [Compound 391] | 0.057 nM | < 1.8 nM | –

Continued, values first:

Row | IC50 [1] | IC50 ([2]; Homo sapiens, MOLM-14, 192 h) | IC50 [2] | Compound
22 | 0.5 nM | 51 nM | – | CC(=O)N1CCN([C@H]2C[C@@H](C(C(C)C)N3CC4(CCN(c5ncnnc5Oc5ccc(F)cc5-c5cnc(C#N)nc5C5CC5)C4)C3)C2)CC1 (some centres unmarked) [Compound 169]
23 | 0.055 nM | – | 4 nM | CC(=O)N1CC2CN([C@H]3C[C@@H]([C@H](C(C)C)N4CC5(CCN(c6ncnnc6Oc6ccc(F)cc6-c6cnc(C)nc6C6CC6)C5)C4)C3)CC2C1 (some centres unmarked) [Compound 375]
24 | 0.62 nM | 100 nM | – | CC(=O)N1CC2CN([C@H]3C[C@H]([C@H](C(C)C)N4CC5(CCN(c6ncnnc6Oc6ccc(F)cc6-c6cnc(C)nc6C6CC6)C5)C4)C3)CC2C1 (some centres unmarked) [Compound 376]
25 | 0.106 nM | – | 1.6 nM | CC(=O)N1CC2CN([C@H]3C[C@@H]([C@H](C(C)C)N4CC5(CCN(c6ncnnc6Oc6ccc(F)cc6-c6cnc(C)nc6C6CC6)C5)C4)C3)CC2C1 (some centres unmarked) [Compound 378]
26 | 0.14 nM | 8.1 nM | – | CC(=O)N1CC2(CCN([C@H]3C[C@@H]([C@H](C(C)C)N4CC5(CCN(c6ncnnc6Oc6ccc(F)cc6-c6cnc(C)nc6C6CC6)C5)C4)C3)C2)C1 [Compound 381]
27 | 0.04 nM | 2.3 nM | – | Cc1ncc(-c2cc(F)ccc2Oc2nncnc2N2CCC3(C2)CN([C@@H](C(C)C)[C@H]2C[C@@H](N4CC[C@H](C(=O)N(C)C)C4)C2)C3)c(C2CC2)n1 [Compound 383]
28 | 0.085 nM | 0.7 nM | – | Cc1ncc(-c2cc(F)ccc2Oc2nncnc2N2CCC3(C2)CN([C@@H](C(C)C)[C@H]2C[C@@H](N4CC[C@H](C(=O)NC5CC5)C4)C2)C3)c(C2CC2)n1 [Compound 384]
29 | 0.026 nM | < 1.8 nM | – | Cc1ncc(-c2cc(F)ccc2Oc2nncnc2N2CCC3(C2)CN([C@@H](C(C)C)[C@H]2C[C@@H](N4C[C@@H]5[C@H](C4)[C@H]5NC(=O)C4CC4)C2)C3)c(C2CC2)n1 [Compound 385]
30 | 0.059 nM | < 1.8 nM | – | Cc1ncc(-c2cc(F)ccc2Oc2nncnc2N2CCC3(C2)CN([C@@H](C(C)C)[C@H]2C[C@@H](N4CC[C@@H](NC(=O)C5CC5)C4)C2)C3)c(C2CC2)n1 [Compound 386]
31 | 0.026 nM | < 1.8 nM | – | Cc1ncc(-c2cc(F)ccc2Oc2nncnc2N2CCC3(C2)CN([C@@H](C(C)C)[C@H]2C[C@@H](N4CC[C@H](NC(=O)C5CC5)C4)C2)C3)c(C2CC2)n1 [Compound 387]
32 | 0.027 nM | < 1.8 nM | – | CC(=O)N[C@H]1CCN([C@H]2C[C@@H]([C@H](C(C)C)N3CC4(CCN(c5ncnnc5Oc5ccc(F)cc5-c5cnc(C)nc5C5CC5)C4)C3)C2)C1 [Compound 388]
33 | 0.046 nM | 2 nM | – | CC(=O)N[C@@H]1CCN([C@H]2C[C@@H]([C@H](C(C)C)N3CC4(CCN(c5ncnnc5Oc5ccc(F)cc5-c5cnc(C)nc5C5CC5)C4)C3)C2)C1 [Compound 389]
34 | 0.18 nM | 4 nM | – | CC(=O)N[C@H]1[C@@H]2CN([C@H]3C[C@@H]([C@H](C(C)C)N4CC5(CCN(c6ncnnc6Oc6ccc(F)cc6-c6cnc(C)nc6C6CC6)C5)C4)C3)C[C@@H]21 [Compound 390]
